Source: patent US20240148709A1, “METHODS OF TREATING EYE PAIN AND EYE DISORDERS” (Aisa Pharma, Inc., priority 2022, published 2024)

System: participants with SSc-RP
Test: Scleroderma Health Assessment Questionnaire (SHAQ), Phase 2a study Part A
Type: in vivo, human
Experimental: Part A—double-blind, placebo-controlled, parallel-group, dose selection, will assess the safety and efficacy of two doses of cilnidipine (10 mg and 20 mg), alone and in combination with tadalafil. A total of 36 participants will be randomized to one of six prespecified treatment arms. Refer to FIG. 1 for treatment arms in Part A of the study. Dosing last for 12 (±2) days in which participants will self-administer daily doses of assigned treatment in the morning. Each participant will take one capsule and one tablet to blind the active therapy being received.
The standard, validated, patient reported outcome measures tool for SSc patients, the SHAQ, will be collected at the time points specified in the study schedules (FIG. 2 and FIGS. 3A and 3B) to assess the participant's quality of life. The SHAQ includes a Raynaud's VAS that will also be reported separately.
Results: Patients in the study were administered the Scleroderma Health Assessment Questionnaire (SHAQ) at the time of study entry and during clinic visits following the treatment period. The study is a two-part, parallel arm design, prospective, double-blind, randomized study conducted in Australia (Flinders Medical Center). 27 patients were randomized into the first phase of the study, following which a DSMB meeting was held, which reviewed data on the primary study endpoint and key Raynaud's secondary endpoints. Data on the SHAQ was not available for the DSMB to review. The mITT population, in which any data was available post treatment was 24 patients was the analysis population for this first part of the study. The second part (i.e., part B) of the study will randomize 36 patients in a double blind, randomized, prospective, placebo controlled, crossover study. In the first part (i.e., Part A) of the study for which data is presented, patients were randomized into 6 groups, cilnidipine at two doses (10 and 20 mg) alone and in combination with tadalafil 5 mg, tadalafil 5 mg alone, and placebo. […] The DSMB recommended that the study proceed into its double blind prospective cross overpowered second phase and compare cilnidipine 20 mg alone to placebo.

[1] = cilnidipine 10 mg and/or tadalafil 5 mg arms
[2] = cilnidipine 20 mg arms (alone or + tadalafil 5 mg)

COCCOC(=O)C1=C(C)NC(C)=C(C(=O)OC/C=C/c2ccccc2)C1c1cccc([N+](=O)[O-])c1 (stereo not shown) [Cilnidipine, cilnidipine]
SHAQ Visual Analog Scale-Raynaud's, In Clinic Visit (Day 12), Mean (SD) [1]: 1.925 (1.9207)
SHAQ Visual Analog Scale-Raynaud's, In Clinic Visit (Day 12), Median [1]: 1.700
SHAQ Visual Analog Scale-Raynaud's, In Clinic Visit (Day 12), Min [1]: 0.00
SHAQ Visual Analog Scale-Raynaud's, In Clinic Visit (Day 12), Q1 [1]: 0.400
SHAQ Visual Analog Scale-Raynaud's, In Clinic Visit (Day 12), Q3 [1]: 3.450
SHAQ Visual Analog Scale-Raynaud's, Percent Change from Baseline, Max [1]: 136.4%
SHAQ Visual Analog Scale-Raynaud's, Percent Change from Baseline, Mean (SD) [1]: 11.36 (118.770) %
SHAQ Visual Analog Scale-Raynaud's, Percent Change from Baseline, Median [1]: −2.27%
SHAQ Visual Analog Scale-Raynaud's, Percent Change from Baseline, Min [1]: −100.0%
SHAQ Visual Analog Scale-Raynaud's, Percent Change from Baseline, Q1 [1]: −100.00%
SHAQ alternative disability index, Change from Baseline, Max [1]: 0.38
SHAQ alternative disability index, Change from Baseline, Mean (SD) [1]: 0.063 (0.2165)
SHAQ alternative disability index, Change from Baseline, Median [1]: 0.000
SHAQ alternative disability index, Change from Baseline, Min [1]: −0.13
SHAQ alternative disability index, Change from Baseline, Q1 [1]: −0.063
SHAQ alternative disability index, Change from Baseline, Q3 [1]: 0.188
SHAQ alternative disability index, In Clinic Visit (Day 12), Max [1]: 1.25
SHAQ alternative disability index, In Clinic Visit (Day 12), Mean (SD) [1]: 0.563 (0.6575)
SHAQ alternative disability index, In Clinic Visit (Day 12), Median [1]: 0.500
SHAQ alternative disability index, In Clinic Visit (Day 12), Min [1]: 0.00
SHAQ alternative disability index, In Clinic Visit (Day 12), Q1 [1]: 0.000
SHAQ alternative disability index, In Clinic Visit (Day 12), Q3 [1]: 1.125
SHAQ alternative disability index, Percent Change from Baseline, Max [1]: 42.9%
SHAQ alternative disability index, Percent Change from Baseline, Mean (SD) [1]: 15.87 (38.161) %
SHAQ alternative disability index, Percent Change from Baseline, Median [1]: 15.87%
SHAQ alternative disability index, Percent Change from Baseline, Min [1]: −11.1%
SHAQ alternative disability index, Percent Change from Baseline, Q1 [1]: −11.11%
SHAQ alternative disability index, Percent Change from Baseline, Q3 [1]: 42.86%
SHAQ Finger Ulcers, Change from Baseline, Max [2]: 0.40
SHAQ Finger Ulcers, Change from Baseline, Mean (SD) [2]: −0.933 (1.9732)
SHAQ Finger Ulcers, Change from Baseline, Median [2]: 0.000
SHAQ Finger Ulcers, Change from Baseline, Min [2]: −3.20
SHAQ Finger Ulcers, Change from Baseline, Q1 [2]: −3.200
SHAQ Finger Ulcers, Change from Baseline, Q3 [2]: 0.400
SHAQ Finger Ulcers, In Clinic Visit (Day 12), Max [2]: 1.90
SHAQ Finger Ulcers, In Clinic Visit (Day 12), Mean (SD) [2]: 0.867 (0.9609)
SHAQ Finger Ulcers, In Clinic Visit (Day 12), Median [2]: 0.700
SHAQ Finger Ulcers, In Clinic Visit (Day 12), Min [2]: 0.00
SHAQ Finger Ulcers, In Clinic Visit (Day 12), Q1 [2]: 0.000
SHAQ Finger Ulcers, In Clinic Visit (Day 12), Q3 [2]: 1.900
SHAQ Finger Ulcers, Percent Change from Baseline, Max [2]: 133.3%
SHAQ Finger Ulcers, Percent Change from Baseline, Mean (SD) [2]: 35.29 (138.648) %
SHAQ Finger Ulcers, Percent Change from Baseline, Median [2]: 35.29%
SHAQ Finger Ulcers, Percent Change from Baseline, Min [2]: −62.7%
SHAQ Finger Ulcers, Percent Change from Baseline, Q1 [2]: −62.75%
SHAQ Finger Ulcers, Percent Change from Baseline, Q3 [2]: 133.33%
SHAQ Overall Change in Severity, Change from Baseline, Max [2]: −1.50
SHAQ Overall Change in Severity, Change from Baseline, Median [2]: −1.600
SHAQ Overall Change in Severity, Change from Baseline, Min [2]: −1.80
SHAQ Overall Change in Severity, Change from Baseline, Q1 [2]: −1.800
SHAQ Overall Change in Severity, Change from Baseline, Q3 [2]: −1.500
SHAQ Overall Change in Severity, In Clinic Visit (Day 12), Max [2]: 1.40
SHAQ Overall Change in Severity, In Clinic Visit (Day 12), Mean (SD) [2]: 1.033 (0.4726)
SHAQ Overall Change in Severity, In Clinic Visit (Day 12), Median [2]: 1.200
SHAQ Overall Change in Severity, In Clinic Visit (Day 12), Min [2]: 0.50
SHAQ Overall Change in Severity, In Clinic Visit (Day 12), Q1 [2]: 0.500
SHAQ Overall Change in Severity, In Clinic Visit (Day 12), Q3 [2]: 1.400
SHAQ Overall Change in Severity, Percent Change from Baseline, Max [2]: −51.7%
SHAQ Overall Change in Severity, Percent Change from Baseline, Mean (SD) [2]: −62.64 (12.445) %
SHAQ Overall Change in Severity, Percent Change from Baseline, Median [2]: −60.00%
SHAQ Overall Change in Severity, Percent Change from Baseline, Min [2]: −76.2%
SHAQ Overall Change in Severity, Percent Change from Baseline, Q1 [2]: −76.19%
SHAQ Overall Change in Severity, Percent Change from Baseline, Q3 [2]: −51.72%
SHAQ Standard disability index, Change from Baseline, Max [2]: 0.00
SHAQ Standard disability index, Change from Baseline, Mean (SD) [2]: −0.125 (0.1250)
SHAQ Standard disability index, Change from Baseline, Median [2]: −0.125
SHAQ Standard disability index, Change from Baseline, Min [2]: −0.25
SHAQ Standard disability index, Change from Baseline, Q1 [2]: −0.250
SHAQ Standard disability index, Change from Baseline, Q3 [2]: 0.000
SHAQ Standard disability index, In Clinic Visit (Day 12), Max [2]: 0.25
SHAQ Standard disability index, In Clinic Visit (Day 12), Mean (SD) [2]: 0.125 (0.1250)
SHAQ Standard disability index, In Clinic Visit (Day 12), Median [2]: 0.125
SHAQ Standard disability index, In Clinic Visit (Day 12), Min [2]: 0.00
SHAQ Standard disability index, In Clinic Visit (Day 12), Q1 [2]: 0.000
SHAQ Standard disability index, In Clinic Visit (Day 12), Q3 [2]: 0.250
SHAQ Standard disability index, Percent Change from Baseline, Max [2]: −33.3%
SHAQ Standard disability index, Percent Change from Baseline, Mean (SD) [2]: −50.00 (23.570) %
SHAQ Standard disability index, Percent Change from Baseline, Median [2]: −50.00%
SHAQ Standard disability index, Percent Change from Baseline, Min [2]: −66.7%
SHAQ Standard disability index, Percent Change from Baseline, Q1 [2]: −66.67%
SHAQ Standard disability index, Percent Change from Baseline, Q3 [2]: −33.33%
SHAQ Visual Analog Scale-Breathing Problems, Change from Baseline, Max [2]: 0.30
SHAQ Visual Analog Scale-Breathing Problems, Change from Baseline, Median [2]: −0.800
SHAQ Visual Analog Scale-Breathing Problems, Change from Baseline, Min [2]: −2.00
SHAQ Visual Analog Scale-Breathing Problems, Change from Baseline, Q1 [2]: −2.000
